This note sets out measurements from patent US20240059655A1, “HETEROCYCLIC G-PROTEIN-COUPLED RECEPTOR 52 (GPR52) AGONISTS” (Board of Regents, The University of Texas System, priority 2020, published 2024).

In experiment [1] the target is T1, human GPR52 (Homo sapiens (Human), UniProt Q9Y2T5). Description: Glosensor cAMP assay in HEK293 cells transiently expressing human GPR52. It counts as cell-based. On the technique in general: Cyclic AMP is a second messenger, typically raised through Gs and lowered through Gi signalling.
Target sequence in this assay (Q9Y2T5 whole entry): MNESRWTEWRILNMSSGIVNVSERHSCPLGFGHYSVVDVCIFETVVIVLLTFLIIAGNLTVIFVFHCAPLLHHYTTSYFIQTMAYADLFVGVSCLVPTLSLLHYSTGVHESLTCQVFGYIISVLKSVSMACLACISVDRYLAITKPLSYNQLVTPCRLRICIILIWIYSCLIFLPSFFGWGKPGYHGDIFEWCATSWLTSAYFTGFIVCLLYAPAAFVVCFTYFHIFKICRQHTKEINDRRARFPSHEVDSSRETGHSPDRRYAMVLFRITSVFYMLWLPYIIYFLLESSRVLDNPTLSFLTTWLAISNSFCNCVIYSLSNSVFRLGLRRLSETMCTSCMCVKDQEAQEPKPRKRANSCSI
Experiment [2] deals with T1, human GPR52. Description: TANGO β-arrestin recruitment assay in HTLA cells expressing GPR52 TANGO construct. Particulars: read-out: β-Arrestin Recruitment Emax (%). A general note: Recruitment of arrestin is a read-out of receptor activation apart from second messengers.
Target sequence in this assay (Q9Y2T5 whole entry, looked up, change not shown): as the sequence (Q9Y2T5 whole entry) above
The subject of experiment [3] is GPR52. The following applies: relative to compound 4a.
Procedure: Bias factor calculations. Mean efficacy (Emax) and potency (EC50) were taken from at least three independent experiments for all compounds tested in both the cAMP and β-arrestin recruitment assays. Formulas for bias factor calculations were adapted from Kenakin^37. […] A ΔΔ log(Emax/EC50) value for each compound was calculated by subtraction of Δ log(Emax/EC50)β-arrestin from Δ log(Emax/EC50)cAmP. The inverse log of this ΔΔ log(Emax/EC50) value is the G protein bias factor. Conversely, the β-arrestin bias factor is calculated from the inverse log of ΔΔ log(Emax/EC50) when Δ log(Emax/EC50)cAmP is subtracted from Δ log(Emax/EC50)β-arrestin.
[4] abbreviates: HEK293, cAMP assay, relative to compound 4 as 100% and 0.5% DMSO as 0%, mean ± SEM, "—" not detected, read-out: Emax (%).

Molecules are shown by their SMILES. Like-named read-outs stand apart in the source and are kept apart here.

`COC(=O)C(NC(=O)c1cccc(Nc2cc(Cc3cccc(C(F)(F)F)c3)ccn2)c1)[C@@H](C)O` (stereo in doubt) [PW0673, Methyl (3-((4-(3-(trifluoromethyl)benzyl)pyridin-2-yl)amino)benzoyl)-D-allothreoninate]: the Emax in experiment [1] (setting [4]) worked out at 164 ± 12%.

Turning to `O=C(N[C@@H](CO)C(O)c1ccccc1)c1cccc(Nc2cc(Cc3cccc(C(F)(F)F)c3)ccn2)c1` (stereo in doubt) [PW0675, N-((1S)-1,3-Dihydroxy-1-phenylpropan-2-yl)-3-((4-(3-(trifluoromethyl)benzyl)pyridin-2-yl)amino)benzamide], in experiment [1] (setting [4]), the Emax amounted to 188 ± 11%. On the same count and under the same terms, in the case of `O=C(NCCO)c1cccc2c1CCN2c1ccnc(Cc2cc(F)cc(C(F)(F)F)c2)n1` [Compound 12a, 1-(2-(3-Fuoro-5-(trifluoromethyl)benzyl)pyrimidin-4-yl)-N-(2-hydroxyethyl)indoline-4-carboxamide] it was 144%; in that of `O=C(NCCO)c1cccc2c1CCN2c1nccc(Cc2cc(F)cc(C(F)(F)F)c2)n1` [Compound 12d, 1-(4-(3-Fluoro-5-(trifluoromethyl)benzyl)pyrimidin-2-yl)-N-(2-hydroxyethyl)indoline-4-carboxamide], 138 ± 8%. Turning to `Cc1c(Cc2cc(F)cc(C(F)(F)F)c2)cnnc1N1CCc2c(C(=O)NCCO)cccc21` [Compound 12e, 1-(5-(3-Fluoro-5-(trifluoromethyl)benzyl)-4-methylpyridazin-3-yl)-N-(2-hydroxyethyl)indoline-4-carboxamide], in experiment [1], the “decreased EC50 (loss of potency) on adding a 2-substituent to compound 12b” value is more than 4 fold. The Emax in experiment [1] (HEK293) was determined as 119 ± 6%.

`O=C(NCCO)c1cccc2c1CCN2c1nncc(Cc2cc(F)cc(C(F)(F)F)c2)c1Cl` [Compound 12f, 1-(4-Chloro-5-(3-fluoro-5-(trifluoromethyl)benzyl)pyridazin-3-yl)-N-(2-hydroxyethyl)indoline-4-carboxamide] registered a maximal response (Emax) in experiment [1] (HEK293) of 97 ± 7%. The “decreased EC50 (loss of potency) on adding a 2-substituent to compound 12b” value in experiment [1] (cAMP EC50) is given as more than 4 fold.

Turning to `O=C(c1cc(F)cc(C(F)(F)F)c1)c1cc(N2CCc3c(C(=O)NCCO)cccc32)ncn1` [Compound 25b, 1-(6-(3-Fluoro-5-(trifluoromethyl)benzoyl)pyrimidin-4-yl)-N-(2-hydroxyethyl)indoline-4-carboxamide], in experiment [1] (setting [4]), the Emax came out at 22 ± 3%.

As to `O=C(c1cccc(C(F)(F)F)c1)c1cc(N2CCc3c(C(=O)NCCO)cccc32)ncn1` [Compound 25c, N-(2-Hydroxyethyl)-1-(6-(3-(trifluoromethyl)benzoyl)pyrimidin-4-yl)indoline-4-carboxamide], the Emax in experiment [1] (setting [4]) was 22 ± 4%.

As for `O=C(NCCO)c1cccc2c1CCN2c1nccc(C(O)c2cc(F)cc(C(F)(F)F)c2)n1` (stereo not drawn) [Compound 25d], in experiment [1] (setting [4]), the maximum response (Emax) stood at 130 ± 9%. Still for that read-out and setting: the figure for `O=C(NCCO)c1cccc2c1CCN2c1cc(C(O)c2cc(F)cc(C(F)(F)F)c2)ncn1` (stereo not drawn) [Compound 25e] is 134 ± 28%; for `O=C(NCCO)c1cccc2c1CCN2c1nccc(C(F)c2cc(F)cc(C(F)(F)F)c2)n1` (stereo not drawn) [Compound 25g, 1-(4-(Fluoro(3-fluoro-5-(trifluoromethyl)phenyl)methyl)pyrimidin-2-yl)-N-(2-hydroxyethyl)indoline-4-carboxamide] it is 144 ± 9%; for `O=C(NCCO)c1cccc2c1CCN2c1cc(C(F)c2cccc(C(F)(F)F)c2)ncn1` (stereo not drawn) [Compound 25i, 1-(6-(Fluoro(3-(trifluoromethyl)phenyl)methyl)pyrimidin-4-yl)-N-(2-hydroxyethyl)indoline-4-carboxamide] it is 83 ± 5%. Same read-out and setting: the figure for `O=C(NCCO)c1cccc2c1CCN2c1cc(Nc2cccc(C(F)(F)F)c2)ncn1` [Compound 25j] is 81 ± 2%; for `O=C(NCCO)c1cccc2c1CCN2c1cc(Oc2cccc(C(F)(F)F)c2)ncn1` [Compound 25k, N-(2-Hydroxyethyl)-1-(6-(3-(trifluoromethyl)phenoxy)pyrimidin-4-yl)indoline-4-carboxamide] it is 99 ± 4%. On the same count and under the same terms, the figure for `O=C(NCCO)c1cccc2c1CCN2c1cc(Sc2cccc(C(F)(F)F)c2)ncn1` [Compound 25l] is 123 ± 6%. `O=C(c1cccc2c1CCN2c1cc(Cc2cc(F)cc(C(F)(F)F)c2)ncn1)N1CC(O)C1` [Compound 30e, (1-(6-(3-Fluoro-5-(trifluoromethyl)benzyl)pyrimidin-4-yl)indolin-4-yl)(3-hydroxyazetidin-1-yl)methanone]: the Emax in experiment [1] (setting [4]) amounted to 111 ± 10%. In the case of `O=C(c1cccc2c1CCN2c1cc(Cc2cc(F)cc(C(F)(F)F)c2)ncn1)N(CCO)CCO` [Compound 30g, 1-(6-(3-Fluoro-5-(trifluoromethyl)benzyl)pyrimidin-4-yl)-N,N-bis(2-hydroxyethyl)indoline-4-carboxamide], the Emax in experiment [1] (setting [4]) came out at 119 ± 15%. The compound `O=C(N[C@H]1CC[C@H](O)CC1)c1cccc(Nc2cc(Cc3cccc(C(F)(F)F)c3)ccn2)c1` [PW0674, N-((1r,4R)-4-Hydroxycyclohexyl)-3-((4-(3-(trifluoromethyl)benzyl)pyridin-2-yl)amino)benzamide] displayed an Emax in experiment [1] (HEK293) of 131 ± 13%. For `O=C(NC(CO)CO)c1cccc(Nc2cc(Cc3cccc(C(F)(F)F)c3)ccn2)c1` [PW0676, N-(1,3-Dihydroxypropan-2-yl)-3-((4-(3-(trifluoromethyl)benzyl)pyridin-2-yl)amino)benzamide], in experiment [2], the Emax amounted to 125 ± 12%. Further, in experiment [3], the “G Protein Bias Factor” value amounted to 66.3 and the “β-Arrestin Bias Factor” value is 0.015. Also, the Emax in experiment [1] (HEK293) stood at 214 ± 19%. Take `O=C(NCC(O)CO)c1cccc(Nc2cc(Cc3cccc(C(F)(F)F)c3)ccn2)c1` (stereo not drawn) [PW0677, N-(2,3-Dihydroxypropyl)-3-((4-(3-(trifluoromethyl)benzyl)pyridin-2-yl)amino)benzamide]: the maximal response (Emax) in experiment [2] turned out to be 127 ± 7%. Besides, in experiment [3], the “G Protein Bias Factor” value is 63.2 and the “β-Arrestin Bias Factor” value is recorded as 0.016. For the same compound, the maximal effect (Emax) in experiment [1] (HEK293) was determined as 268 ± 12%.

In the case of `O=C(c1cccc(Nc2cc(Cc3cccc(C(F)(F)F)c3)ccn2)c1)N1CCOCC1` [PW0823], in experiment [1] (HEK293), the Emax came out at 93 ± 7%. In turn, `O=C(NCC(F)F)c1cccc(Nc2cc(Cc3cccc(C(F)(F)F)c3)ccn2)c1` [PW0824] gave an Emax in experiment [1] (HEK293) of 152 ± 7%. On the same count and under the same terms, in the case of `COCCNC(=O)c1cccc(Nc2cc(Cc3cccc(C(F)(F)F)c3)ccn2)c1` [PW0825, N-(2-Methoxyethyl)-3-((4-(3-(trifluoromethyl)benzyl)pyridin-2-yl)amino)benzamide] it was 131 ± 15%; in that of `O=C(NCCCCO)c1cccc(Nc2cc(Cc3cccc(C(F)(F)F)c3)ccn2)c1` [PW0832, N-(4-Hydroxybutyl)-3-((4-(3-(trifluoromethyl)benzyl)pyridin-2-yl)amino)benzamide], 129 ± 8%.

Regarding `Cc1c(Nc2cc(Cc3ccc(Cl)cc3F)ccn2)cccc1C(=O)NCCO` [PW0868, 3-((4-(4-Chloro-2-fluorobenzyl)pyridin-2-yl)amino)-N-(2-hydroxyethyl)-2-methylbenzamide], in experiment [1] (HEK293), the Emax was determined as 131 ± 8%.

A word on the Emax: it is the maximal effect, on the per cent scale that the assay sets.
